Data: PMC10939466, “A transferrin receptor targeting dual-modal MR/NIR fluorescent imaging probe for glioblastoma diagnosis” (Regenerative Biomaterials, 2024)
Square brackets hold non-standard residues; d marks the D form. Peptide text beside a SMILES is read from it.

Experiments:
[1] = Cellular uptake of the peptides; type: cell-based
[2] = tested on: BBB model in vitro (bEnd.3 cells co-cultured with U87-MG cells); assay: Sodium fluorescein permeability of the in vitro BBB model; type: in vitro ADME; conditions: transwell 3 µm pore, 0.33 cm^2, bEnd.3 upper / U87-MG lower chamber; NaFl 10 µg/mL; 30, 60, 90 min; 37°C; fluorescence 485/535 nm
Experimental: A primary BBB model using bEnd.3 cells in vitro was established to evaluate the penetration ability of ^DTHR-Cy7-PEG-DSPE-SPIONs. The inner side of a polycarbonate transwell (Millipore, USA) with a mean pore size of 3 µm and a surface area of 0.33 cm^2 was coated with collagen. After coating, the transwell was left to air dry for 30 min. Then, bEnd.3 cells (5 × 10^4 cells per well) were seeded into the upper chamber of a 24-well transwell plate. After 48 h, 1 × 10^5 U87-MG cells were seeded in the lower chamber of each well. Both cells were co-cultured for 1 week.
The endothelial permeability coefficient of sodium fluorescein (NaFl) was used to evaluate the function of BBB model in vitro, as previously described. In brief, 200 µL NaFl solution (10 µg/mL) and 900 µL PBS were added to the upper and lower chambers of the BBB models, respectively. And then cultured in a 5% CO2 atmosphere at 37°C. Following incubation periods of 30, 60 and 90 min, 100 µL samples from the lower chambers were transferred to a new 96-well plate. […] Finally, the relative fluorescence intensity of the samples was measured using a multi-detector monochromator microplate reader (485/535 nm), with NaFl concentration deduced from a standard curve. The apparent permeability coefficient (Papp) was calculated using the formula: Papp=dQ/dt×1/(A×C0). […]

## CSCC[C@@H](NC(=O)[C@@H](Cc1c[nH]c2ccccc12)NC(=O)[C@@H](CO)NC(=O)[C@H]1CCCN1C(=O)[C@H](NC(=O)[C@@H](Cc1c[nH]c2ccccc12)NC(=O)[C@H]1CCCN1C(C)=O)C(C)C)C(=O)N1CCC[C@@H]1C(=O)N1CCC[C@@H]1C(=O)N[C@H](CCCNC(=N)N)C(=O)N[C@H](Cc1c[nH]cn1)C(=O)N[C@@H](C(=O)O)[C@H](C)O [^DTHR, Ac-pwvpswmpprht-COOH] (Ac-[dP][dW][dV][dP][dS][dW][dM][dP][dP][dR][dH][dT]-OH)
[1]
  cellular uptake compared to THR: lower cellular uptake

## O=C([O-])c1ccccc1-c1c2ccc(=O)cc-2oc2cc([O-])ccc12.[Na+].[Na+] [NaFl, sodium fluorescein]
[2]
  Papp of NaFl, BBB model: 11.24 ± 0.73 ×10^−6 cm/s
